Measured values from patent publication US9908886B2 (Agency for Science, Technology and Research, priority 2012, dated 2018).
Like-named read-outs stand apart in the source and are kept apart here.

What was measured:
MNK1 = MNK1 (Homo sapiens, UniProt Q9BUB5); assay: In vitro MNK kinase assay (Caliper LabChip mobility shift); format: biochemical
MNK2 = MNK2 (Homo sapiens (Human), UniProt Q9HBH9); assay: as above; format: biochemical
[1] = enzymatic, 1.2 mM ATP, read-out: IC50 Mnk1
[2] = enzymatic, 250 μM ATP, read-out: IC50 Mnk2

Chain of MNK2 (Q9HBH9 84-388): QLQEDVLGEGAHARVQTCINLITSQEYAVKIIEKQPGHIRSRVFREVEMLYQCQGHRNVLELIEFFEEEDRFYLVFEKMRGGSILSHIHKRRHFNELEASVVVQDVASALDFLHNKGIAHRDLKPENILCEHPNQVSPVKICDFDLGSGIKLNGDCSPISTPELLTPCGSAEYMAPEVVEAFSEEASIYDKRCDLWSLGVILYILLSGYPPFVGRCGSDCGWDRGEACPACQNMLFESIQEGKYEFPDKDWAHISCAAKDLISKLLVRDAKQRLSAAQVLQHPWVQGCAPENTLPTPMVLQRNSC

Question: How did the IC50 (MNK1; [1]) turn out when `CN1CCN(C(=O)c2ccc(-c3ccc4ncc(-c5ccc(C#N)cc5)n4c3)cc2OC(F)(F)F)CC1` [Example 157] was run?
Answer: < 1 µM

Question: And the IC50 (MNK2; [2])?
Answer: < 1 µM

Question: With `COc1cc(-c2ccc3ncc(-c4ccc(C#N)cc4)n3c2)ccc1C(=O)N1CCOCC1` [Example 158] as the compound, how does the IC50 (MNK1; [1]) read?
Answer: < 1 µM

Question: And the IC50 (MNK2; [2])?
Answer: < 0.1 µM

Question: With `N#Cc1ccc(-c2cnc3ccc(-c4ccc(C(=O)N5CCNCC5)c(O)c4)cn23)cc1` [Example 159, 4-(6-(3-hydroxy-4-(piperazine-1-carbonyl)phenyl)imidazo[1,2-a]pyridin-3-yl)benzonitrile] as the compound, how does the IC50 (MNK1; [1]) read?
Answer: < 0.1 µM

Question: And the IC50 (MNK2; [2])?
Answer: < 0.1 µM

Question: How did the IC50 (MNK1; [1]) turn out when `N#Cc1ccc(-c2cnc3ccc(-c4ccc(C(=O)N5CCOCC5)c(N5CCOCC5)c4)cn23)cc1` [Example 160, 4-(6-[3-(morpholin-4-yl)-4-(morpholin-4-ylcarbonyl)phenyl]imidazo[1,2-a]pyridin-3-yl)benzonitrile] was run?
Answer: < 0.1 µM

Question: And the IC50 (MNK2; [2])?
Answer: < 0.1 µM

Question: With `N#Cc1ccc(-c2cnc3ccc(-c4ccc(C(=O)N5CCOCC5)c(F)c4)cn23)cc1` [Example 162, 4-(6-(3-fluoro-4-(morpholine-4-carbonyl)phenyl)imidazo[1,2-a]pyridin-3-yl)benzonitrile] as the compound, how does the IC50 (MNK1; [1]) read?
Answer: < 1 µM

Question: And the IC50 (MNK2; [2])?
Answer: < 1 µM

Question: How did the IC50 (MNK1; [1]) turn out when `CC1(N2CCOCC2)CCN(C(=O)c2ccc(-c3ccc4ncc(-c5ccc(C#N)cc5)n4c3)cc2)CC1` [Example 163, 4-(6-(4-(4-methyl-4-morpholinopiperidine-1-carbonyl)phenyl)imidazo[1,2-a]pyridin-3-yl)benzonitrile] was run?
Answer: < 0.1 µM

Question: And the IC50 (MNK2; [2])?
Answer: < 0.1 µM

Question: Which IC50 (MNK1; [1]) does the source give for `CN1CCN(C2(C)CCN(C(=O)c3ccc(-c4ccc5ncc(-c6ccc(C#N)cc6)n5c4)cc3)CC2)CC1` [Example 164, 4-(6-(4-(4-methyl-4-(4-methylpiperazin-1-yl)piperidine-1-carbonyl)phenyl)imidazo[1,2-a]pyridin-3-0)benzonitrile] here?
Answer: < 0.1 µM

Question: What about the IC50 (MNK2; [2]) of the same compound?
Answer: < 0.1 µM

Question: `N#Cc1ccc(-c2cnc3ccc(-c4ccc(C(=O)N5CCNCC5)cc4)cn23)cc1` [Example 165, 4-(6-(4-(piperazine-1-carbonyl)phenyl)imidazo[1,2-a]pyridin-3-yl)benzonitrile] was tested. Which IC50 (MNK1; [1]) did it give?
Answer: < 0.1 µM

Question: What about the IC50 (MNK2; [2]) of the same compound?
Answer: < 0.1 µM

Question: Which results are given for `CC(=O)Nc1cc(-c2ccc3ncc(-c4ccc(C#N)cc4)n3c2)ccc1C(=O)N1CCOCC1` [Example 166, N-(5-(3-(4-cyanophenyl)imidazo[1,2-a]pyridin-6-yl)-2-(morpholine-4-carbonyl)phenyl)acetamide]?
Answer: IC50 (MNK1; [1]): < 0.1 µM; IC50 (MNK2; [2]): < 0.1 µM

Question: Which results are given for `N#Cc1ccc(-c2cnc3ccc(-c4ccc(C(=O)N5CCOCC5)c(O)c4)cn23)cc1` [Example 167, 4-(6-(3-hydroxy-4-(morpholine-4-carbonyl)phenyl)imidazo[1,2-a]pyridin-3-yl)benzonitrile]?
Answer: IC50 (MNK1; [1]): < 0.1 µM; IC50 (MNK2; [2]): < 0.1 µM

Question: Which IC50 (MNK1) does the source give for `CNC1CCN(C(=O)c2ccc(-c3ccc4ncc(-c5ccc(C#N)cc5)n4c3)cc2NC(C)=O)CC1` [Example 169, N-(5-(3-(4-cyanophenyl)imidazo[1,2-a]pyridin-6-yl)-2-(4-(methylamino)piperidine-1-carbonyl)phenyl)acetamide] here?
Answer: < 0.1 µM

Question: And the IC50 (MNK2)?
Answer: < 0.1 µM

Question: For `CC(=O)Nc1cc(-c2ccc3ncc(-c4ccc(C#N)cc4)n3c2)ccc1C(=O)N1CCNCC1` [Example 170, N-(5-(3-(4-cyanophenyl)imidazo[1,2-a]pyridin-6-yl)-2-(piperazine-1-carbonyl)phenyl)acetamide], which IC50 (MNK1; [1]) is on record?
Answer: < 0.1 µM

Question: What about the IC50 (MNK2; [2]) of the same compound?
Answer: < 0.1 µM

Question: For `COC1(C)CCN(C(=O)c2ccc(-c3ccc4ncc(-c5ccc(C#N)cc5)n4c3)cc2)CC1` [Example 172, 4-(6-(4-(4-methoxy-4-methylpiperidine-1-carbonyl)phenyl)imidazo[1,2-a]pyridin-3-yl)benzonitrile], which IC50 (MNK1; [1]) is on record?
Answer: < 0.1 µM

Question: What about the IC50 (MNK2; [2]) of the same compound?
Answer: < 0.1 µM

Question: How did the IC50 (MNK1; [1]) turn out when `CC1(N)CCN(C(=O)c2ccc(-c3ccc4ncc(-c5ccc(Cl)cc5)n4c3)cc2)CC1` [Example 173, (4-amino-4-methylpiperidin-1-yl)(4-(3-(4-chlorophenyl)imidazo[1,2-a]pyridin-6-yl)phenyl)methanone] was run?
Answer: < 0.1 µM

Question: What about the IC50 (MNK2; [2]) of the same compound?
Answer: < 0.1 µM

Question: Which IC50 (MNK1; [1]) does the source give for `NC1CCN(C(=O)c2ccc(-c3ccc4ncc(-c5ccc(Cl)cc5)n4c3)cc2)CC1` [Example 174, (4-aminopiperidin-1-yl)(4-(3-(4-chlorophenyl)imidazo[1,2-a]pyridin-6-yl)phenyl)methanone] here?
Answer: < 0.1 µM

Question: And the IC50 (MNK2; [2])?
Answer: < 0.1 µM

Question: `CN1CCN(C2CCN(C(=O)c3ccc(-c4ccn5ncc(-c6ccc(C#N)cc6)c5n4)cc3)CC2)CC1` [Example 179, 4-(5-(4-(4-(4-methylpiperazin-1-yl)piperidine-1-carbonyl)phenyl)pyrazolo[1,5-a]pyrimidin-3-yl)benzonitrile] was tested. Which IC50 (MNK1; [1]) did it give?
Answer: < 0.1 µM

Question: And the IC50 (MNK2; [2])?
Answer: < 0.1 µM

Question: Which IC50 (MNK1; [1]) does the source give for `N#Cc1ccc(-c2cnn3ccc(-c4ccc(C(=O)N5CCCOCC5)cc4)nc23)cc1` [Example 181, 4-(5-(4-(1,4-oxazepane-4-carbonyl)phenyl)pyrazolo[1,5-a]pyrimidin-3-yl)benzonitrile] here?
Answer: < 0.1 µM

Question: And the IC50 (MNK2; [2])?
Answer: < 0.1 µM

Question: `N#Cc1ccc(-c2cnn3ccc(-c4ccc(C(=O)N5CCNCC5)cc4)nc23)cc1` [Example 183, 4-(5-(4-(piperazine-1-carbonyl)phenyl)pyrazolo[1,5-a]pyrimidin-3-yl)benzonitrile] was tested. Which IC50 (MNK1; [1]) did it give?
Answer: < 0.1 µM

Question: And the IC50 (MNK2; [2])?
Answer: < 0.1 µM

Question: `CC(=O)N1CCN(C(=O)c2ccc(-c3ccn4ncc(-c5ccc(C#N)cc5)c4n3)cc2)CC1` [Example 184] was tested. Which IC50 (MNK1; [1]) did it give?
Answer: < 0.1 µM

Question: And the IC50 (MNK2; [2])?
Answer: < 0.1 µM

Question: What does the source list for `N#Cc1ccc(-c2cnn3ccc(-c4ccc(C(=O)N5CCOCC5)cc4)nc23)cc1` [Example 185, 4-(5-(4-(morpholine-4-carbonyl)phenyl)pyrazolo[1,5-a]pyrimidin-3-yl)benzonitrile]?
Answer: IC50 (MNK1; [1]): < 0.1 µM; IC50 (MNK2; [2]): < 0.1 µM

Question: With `CC(=O)NC1CCN(C(=O)c2ccc(-c3ccn4ncc(-c5ccc(C#N)cc5)c4n3)cc2)CC1` [Example 186, N-(1-(4-(3-(4-cyanophenyl)pyrazolo[1,5-a]pyrimidin-5-yl)benzoyl)piperidin-4-yl)acetamide] as the compound, how does the IC50 (MNK1; [1]) read?
Answer: < 0.1 µM

Question: And the IC50 (MNK2; [2])?
Answer: < 0.1 µM

Question: Which results are given for `N#Cc1ccc(-c2cnn3ccc(-c4ccc(C(=O)N5CCOCC5)c(O)c4)nc23)cc1` [Example 187, 4-(5-(3-hydroxy-4-(morpholine-4-carbonyl)phenyl)pyrazolo[1,5-a]pyrimidin-3-yl)benzonitrile]?
Answer: IC50 (MNK1; [1]): < 0.1 µM; IC50 (MNK2; [2]): < 0.1 µM

Question: How did the IC50 (MNK1) turn out when `N#Cc1ccc(-n2cnc3ccc(-c4ccc(C(=O)N5CCOCC5)cc4)cc32)cc1` [Example 190, 4-(6-(4-(morpholine-4-carbonyl)phenyl)-1H-benzo[d]imidazol-1-yl)benzonitrile] was run?
Answer: < 1 µM

Question: And the IC50 (MNK2)?
Answer: < 1 µM
